Patent US8796209B2, “Compositions and methods related to anti-FGF agents” (The Regents of the University of California, priority 2005, dated 2014)

What was measured:
Assay type in all cases: cell-based
M21 human melanoma cells [1] = assay: Chemoresistance: caspases 3/7 activity with etoposide; conditions: in presence of wt FGF
Experimental: M21 human melanoma cells were cultured in DMEM with 1% FBS for 48 h, and then treated with etoposide (0.1-100 μM) in the presence or absence of wt or mutant FGF for 48 h.
(§1) Cells were plated on well of 96-well tissue culture plates and serum-starved for 48-72 h in DMEM supplemented with 0-1% FBS. Then cells were treated with etoposide (up to 100 μM) and wt or mutant FGF for additional 24-48 h. Cell viability was determined using CellTiter 96 MTS assay (Promega) and caspases 3/7 activity was determined by using Caspase-Glo 3/7 assay kit (Promega). FIGS. 10 and 11.

M21 human melanoma cells [2] = assay: Chemoresistance: cell viability with etoposide (MTS); conditions: etoposide 0.1-100 μM, 48 h
Experimental: In FIG. 10, results are provided showing suppression of FGF-induced drug resistance in M21 melanoma cells. Resistance of melanoma cells was to etoposide-induced apoptosis. M21 human melanoma cells were cultured in DMEM with 1% FBS for 48 h, and then treated with etoposide (0.1-100 μM) in the presence or absence of wt or mutant FGF for 48 h, with cell viability determined.
as §1

αvβ3-K562 cells = assay: Cell adhesion assay on immobilized FGF-1, αvβ3-K562 cells; conditions: 1 mM MnCl2
Experimental: Wells of 96-well microtiter plates were coated with FGF-1 at the indicated concentrations and remaining protein binding sites were blocked with 1 mg/ml BSA. Hepes-Tyrode buffer supplemental with 1 mM MnCl2) was used for adhesion assays. Prior to incubation with immobilized FGF-1, αvβ3-K562 cells were treated with 10 μg/ml anti-β3 function-blocking antibody 7E3 (triangle), anti-α5 function-blocking antibody KH72 (square), both 7E3 and KH72 (circle), or mouse IgG (diamond). BSA (cross) was used as a negative control. Data is shown as means+/−SD of triplicate experiments.
(§2) Wells of polystyrene 96-well non-tissue culture plate were coated with wild type or mutants FGF-1 as above. In adhesion assay, cells (10^5 cells/well) in 100 μl of Hepes-Tyrode buffer supplemented with 1 mM Mn^2+ were added to the wells and incubated at 37° C. for 1 h. After non-bound cells were removed by rinsing the wells with the same buffer, bound cells were quantified by measuring endogenous phosphatase activity (Prater et al., 1991)

K562 cells = assay: Cell adhesion assay on immobilized FGF-1, mock-transfected K562 cells; conditions: 1 mM MnCl2
Experimental: K562 cells were treated with 10 μg/ml anti-α5 function-blocking antibody KH72 (square) or mouse IgG (diamond) for 10 min on ice. Hepes-Tyrode buffer supplemented with 1 mM MnCl2) was used for adhesion assays. Bound cells were quantified by measuring endogenous phosphatase activity. BSA (cross) was used as a negative control. Data is shown as means+/−SD of triplicate experiments.
as §2

R50E: FGF-1 mutant with the Arg-50 to Glu (R50E) mutation
effect on caspase activation (M21 human melanoma cells [1]): blocked inhibition of caspase activation
effect on apoptosis induced by etoposide (M21 human melanoma cells [2]): enhanced apoptosis

Wild type: human FGF-1 (acidic FGF), wild type, expressed in E. coli
adhesion of αvβ3-K562 cells to the immobilized protein (αvβ3-K562 cells): bound to immobilized FGF-1 in a dose-dependent manner
adhesion of mock-transfected K562 cells to the immobilized protein (K562 cells): bound to immobilized FGF-1 in a dose-dependent manner
